# Assay results published in patent US9365583B2, “Substituted pyrazoles and uses thereof” (Genentech, Inc., priority 2013, dated 2016).
# Target: T1, N-terminally GST-tagged DLK (catalytic domain amino acid 1-520) (Homo sapiens, UniProt Q12852)
# T1 construct: N-terminally GST-tagged DLK (catalytic domain amino acid 1-520); purchased Carna Bioscience
# T1 sequence (Q12852 1-520): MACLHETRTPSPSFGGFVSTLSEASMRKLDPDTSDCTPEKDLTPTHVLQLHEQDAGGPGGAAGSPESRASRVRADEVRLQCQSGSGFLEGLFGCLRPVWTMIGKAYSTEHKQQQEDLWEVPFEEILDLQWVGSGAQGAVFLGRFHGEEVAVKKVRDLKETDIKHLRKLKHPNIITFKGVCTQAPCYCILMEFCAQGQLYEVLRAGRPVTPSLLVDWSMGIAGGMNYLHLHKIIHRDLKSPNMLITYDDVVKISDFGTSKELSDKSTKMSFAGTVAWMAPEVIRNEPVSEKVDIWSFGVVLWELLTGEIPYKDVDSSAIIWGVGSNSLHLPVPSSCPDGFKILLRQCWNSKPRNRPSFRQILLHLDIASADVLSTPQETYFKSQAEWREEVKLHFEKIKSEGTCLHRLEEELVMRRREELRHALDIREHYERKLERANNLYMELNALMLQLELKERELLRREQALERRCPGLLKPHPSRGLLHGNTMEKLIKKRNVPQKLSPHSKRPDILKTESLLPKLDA
# Assay: DLK TR-FRET inhibition assay
# Type: biochemical
# Settings: 5 nM GST-DLK, 40 nM HIS-MKK4 K131M substrate, 30 μM ATP, 60 minutes at ambient temperature
# Procedure, shortened: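 Phosphorylated MKK4 was quantified by TR-FRET (Eu-labelled anti-phospho-MKK4, D2 anti-HIS; 3 h, 665 and 615 nm emission) after EDTA quench. Reactions held 5 nM GST-tagged DLK catalytic domain (1-520), 40 nM HIS-MKK4 K131M substrate, 30 μM ATP and compound (3-fold series from 20 uM), 60 min, room temperature, pH 7.5.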
row,SMILES,Ki [nM]
1,"CC(C)n1nc(-c2cnc(N)c(C(F)(F)F)c2)cc1[C@H]1[C@@H]2C[C@@H](N3CCN(C)CC3)C[C@@H]21 [compound 67, 5-(1-isopropyl-5-((1R,3s,5S,6r)-3-(4-methylpiperazin-1-yl)bicyclo [3.1.0]hexan-6-yl)-1H-pyrazol-3-yl)-3-(trifluoromethyl)pyridin-2-amine]",3.93
2,"CC(C)n1nc(-c2cnc(N)c(OC(F)(F)F)c2)cc1[C@H]1[C@@H]2C[C@@H](NCC(F)F)C[C@@H]21 [compound 288, 5-(5-((1R,3s,5S,6r)-3-((2,2-udifloroethyl)amino)bicyclo[3.1.0]hexan-6-yl)-1-isopropyl-1H-pyrazol-3-yl)-3-(tritluoromethoxy) pyridin-2-amine]",6.3
3,"Nc1ncc(-c2cc([C@@H]3[C@@H]4C[C@H](N5CCOCC5)C[C@@H]43)n(CC3CC3)n2)cc1OC(F)(F)F [compound 283, 5-(1-(cyclopropylmethyl)-5-((1R,3r,5S,6s)-3-morpholinobicyclo [3.1.0]hexan-6-yl)-1H-pyrazol-3-yl)-3-(tritluoromethoxy) pyridin-2-amine]",209
4,"CC(C)n1nc(-c2cnc(N)c(OC(F)F)c2)cc1[C@H]1[C@@H]2C[C@H](N3CC[C@H](F)C3)C[C@@H]21 [compound 285, 3-(difluoromethoxy)-5-(5-((1R,3r,5S,6S)-3-((S)-3-fluoropyrrolidin-1-yl)bicyclo[3.1.0]hexan-6-yl)-1-isopropyl-1H-pyrazol-3-yl) pyridin-2-amine]",4.3
5,"CC(C)n1nc(-c2cnc(N)c(OC(F)(F)F)c2)cc1[C@H]1[C@@H]2C[C@@H](N3CCNCC3)C[C@@H]21 [compound 245, 5-(1-isopropyl-5-((1R,3s,5S,6r)-3-(piperazin-1-yl)bicyclo[3.1.0]hexan-6-yl)-1H-pyrazol-3-yl)-3-(trifluoromethoxy)pyridin-2-amine]",2.6
6,"Nc1ncc(-c2cc([C@H]3[C@@H]4C[C@H](N5CCCOCC5)C[C@@H]43)n(CC(F)F)n2)cc1C(F)(F)F [compound 136, 5-(5-((1R,3r,5S,6r)-3-(1,4-oxazepan-4-yl)bicyclo[3.1.0]hexan-6-yl)-1-(2,2-difluoroethyl)-1H-pyrazol-3-yl)-3-(trifluoromethyl) pyridin-2-amine]",7.1
7,"CC(C)n1nc(-c2cnc3cnn([C@H](C)c4ccccn4)c3c2)cc1[C@H]1[C@@H]2C[C@@H](N3CCOCC3)C[C@@H]21 [compound 31, 4-((1R,3S,5S,6r)-6-(1-isopropyl-3-(1-((R)-1-(pyridin-2-yl)ethyl)-1H-pyrazolo[4,3-b]pyridin-6-yl)-1H-pyrazol-5-yl)bicyclo[3.1.0]hexan-3-yl)morpholine]",79.4
8,"CC(C)n1nc(-c2cnc(N)c(C(F)(F)F)c2)cc1[C@H]1[C@@H]2C[C@@H](N3CCN[C@@H](C)C3)C[C@@H]21 [compound 235, 5-(1-isopropyl-5-((1R,3s,5S,6S)-3-((S)-3-methylpiperazin-1-yl)bicyclo[3.1.0]hexan-6-yl)-1H-pyrazol-3-yl)-3-(trifluoromethyl) pyridin-2-amine]",3.8
9,"Nc1ncc(-c2cc([C@H]3[C@@H]4C[C@@H](N5CCOCC5)C[C@@H]43)n(CC(F)F)n2)cc1OC(F)F [compound 160, 5-(1-(2,2-difluoroethyl)-5-((1R,3s,5S,6r)-3-morpholinobicyclo [3.1.0]hexan-6-yl)-1H-pyrazol-3-yl)-3-(difluoromethoxy) pyridin-2-amine]",2.4
10,"CC(C)n1nc(-c2cnc(N)c(OC(F)F)c2)cc1[C@H]1[C@@H]2C[C@H](N3CC4(CN(C)CCO4)C3)C[C@@H]21 [compound 228, 3-(difluoromethoxy)-5-(1-isopropyl-5-((1R,3r,5S,6r)-3-(8-methyl-5-oxa-2,8-diazaspiro[3.5]nonan-2-yl)bicyclo[3.1.0]hexan-6-yl)-1H-pyrazol-3-yl)pyridin-2-amine]",2.8
11,"CC(C)n1nc(-c2cnc(N)c(C(F)(F)F)c2)cc1[C@@H]1[C@H]2CC[C@@H](N3CCOCC3)[C@H]21 (single isomer, unassigned) [compound 138, 5-(1-isopropyl-5-(2-morpholinobicyclo[3.1.0]hexan-6-yl)-1H-pyrazol-3-yl)-3-(trifluoromethyl) pyridin-2-amine]",12.9
12,"CC(C)n1nc(-c2cnc(N)c(C(F)(F)F)c2)cc1[C@H]1[C@@H]2C[C@@H](N(C)C3COC3)C[C@@H]21 [compound 50, 5-(1-isopropyl-5-((1R,3s,5S,6r)-3-(methyl(oxetan-3-yl)amino)bicyclo[3.1.0]hexan-6-yl)-1H-pyrazol-3-yl)-3-(trifluoromethyl) pyridin-2-amine]",2.83
13,"COC1CN([C@@H]2C[C@@H]3[C@H](C2)[C@H]3c2cc(-c3cnc(N)c(OC(F)F)c3)nn2CC2CC2)C1 [compound 155, 5-(1-(cyclopropylmethyl)-5-((1R,3s,5S,6r)-3-(3-methoxyazetidin-1-yl)bicyclo[3.1.0]hexan-6-yl)-1H-pyrazol-3-yl)-3-(difluoromethoxy)pyridin-2-amine]",3.3
14,"COC1CN([C@@H]2C[C@@H]3[C@H](C2)[C@H]3c2cc(-c3cnc(N)c(C(F)(F)F)c3)nn2CC(F)F)C1 [compound 149, 5-(1-(2,2-difluoroethyl)-5-((1R,3s,5S,6r)-3-(3-methoxyazetidin-1-yl)bicyclo[3.1.0]hexan-6-yl)-1H-pyrazol-3-yl)-3-(trifluoromethyl) pyridin-2-amine]",4.1
15,"COC1CN([C@H]2C[C@@H]3[C@H](C2)[C@H]3c2cc(-c3cnc(N)c(C(F)(F)F)c3)nn2CC(F)F)C1 [compound 144, 5-(1-(2,2-difluoroethyl)-5-((1R,3r,5S,6r)-3-(3-methoxyazetidin-1-yl)bicyclo[3.1.0]hexan-6-yl)-1H-pyrazol-3-yl)-3-(trifluoro-methyl)pyridin-2-amine]",2.8
16,"Nc1ncc(-c2cc([C@H]3[C@@H]4C[C@@H](N5CCOCC5)C[C@@H]43)nn2C2CCC2)cc1OC(F)F [compound 133, 5-(1-cyclobutyl-3-((1R,3s,5S,6r)-3-morpholinobicyclo[3.1.0]hexan-6-yl)-1H-pyrazol-5-yl)-3-(difluoromethoxy)pyridin-2-amine]",≥ 321

# Molecules with a lower Ki, results first:
row,Ki [nM],SMILES
1,0.74,"CC(C)n1nc(-c2cnc(N)c(OC(F)F)c2)cc1[C@H]1[C@@H]2C[C@@H](N3CCO[C@@H](C)C3)C[C@@H]21 [compound 75, 3-(difluoromethoxy)-5-(1-isopropyl-5-((1R,3s,5S,6S)-3-((S)-2-methylmorpholino)bicyclo[3.1.0]hexan-6-yl)-1H-pyrazol-3-yl) pyridin-2-amine]"
2,1.8,"COC1CCN([C@@H]2C[C@@H]3[C@H](C2)[C@H]3c2cc(-c3cnc(N)c(OC(F)(F)F)c3)nn2C(C)C)CC1 [compound 246, 5-(1-isopropyl-5-((1R,3s,5S,6r)-3-(4-methoxypiperidin-1-yl)bicyclo[3.1.0]hexan-6-yl)-1H-pyrazol-3-yl)-3-(trifluoromethoxy) pyridin-2-amine]"
3,1.88,"CC(C)n1nc(-c2cnc(N)c(OC(F)(F)F)c2)cc1[C@H]1[C@@H]2C[C@H](N3CC4(COC4)C3)C[C@@H]21 [compound 57, 5-(5-((1R,3r,5S,6r)-3-(2-oxa-6-azaspiro[3.3]heptan-6-yl)bicyclo [3.1.0]hexan-6-yl)-1-isopropyl-1H-pyrazol-3-yl)-3-(trifluoro-methoxy)pyridin-2-amine]"
4,1.1,CC(C)n1nc(-c2cnc(N)c(C(F)(F)F)c2)cc1[C@H]1[C@@H]2C[C@@H](N3CCN(CC(F)F)CC3)C[C@@H]21 [compound 266]
5,1.1,"CC(C)n1nc(-c2cnc(N)c(OC(F)(F)F)c2)cc1[C@H]1[C@@H]2C[C@H](N3CCNCC3)C[C@@H]21 [compound 244, 5-(1-isopropyl-5-((1R,3r,5S,6r)-3-(piperazin-1-yl)bicyclo[3.1.0]hexan-6-yl)-1H-pyrazol-3-yl)-3 - (trifluoromethoxy)pyridin-2-amine]"
6,1.45,"COC1CN([C@@H]2C[C@@H]3[C@H](C2)[C@H]3c2cc(-c3cnc(N)c(OC(F)(F)F)c3)nn2C(C)C)C1 [compound 38, 5-(1-isopropyl-5-((1R,3s,5S,6r)-3-(3-methoxyazetidin-1-yl)bicyclo[3.1.0]hexan-6-yl)-1H-pyrazol-3-yl)-3-(trifluoromethoxy) pyridin-2-amine]"
7,1.2,"CC(C)n1nc(-c2cnc(N)c(OC(F)F)c2)cc1[C@H]1[C@@H]2C[C@H](N3C[C@@H]4C[C@H]3CN4C)C[C@@H]21 [compound 202, 3-(difluoromethoxy)-5-(1-isopropyl-5-((1R,3r,5S,6S)-3-((1S,4S)-5-methyl-2,5-diazabicyclo[2.2.1]heptan-2-yl)bicyclo[3.1.0]hexan-6-yl)-1H-pyrazol-3-yl) pyridin-2-amine]"
